According to patent US20150322112A1, “SEMA5B PEPTIDES AND VACCINES CONTAINING THE SAME” (ONCOTHERAPY SCIENCE, INC., priority 2012, published 2015):
“Also recorded” adds a separate entry of the source. No end group written: not given here.

What was measured:
[1] = tested on: peptide-pulsed TISI cells; experiment: IFN-gamma ELISA of expanded CTL lines; type: cell-based, human; settings: CTL lines stimulated with the peptide; target cells pulsed with peptide vs without peptide pulse
Method: CTLs were expanded in culture using the method similar to the one described by Riddell et al. (Walter E A et al., N Engl J Med 1995 October 19, 333(16): 1038-44; Riddell S R et al., Nat Med 1996 February, 2(2): 216-23). A total of 5×10^4 CTLs were suspended in 25 ml of AIM-V/5% AS medium with 2 kinds of human B-lymphoblastoid cell lines, inactivated by Mitomycin C, in the presence of 40 ng/ml of anti-CD3 monoclonal antibody (Pharmingen). One day after initiating the cultures, 120 IU/ml of IL-2 were added to the cultures. The cultures were fed with fresh AIM-V/5% AS medium containing 30 IU/ml of IL-2 on days 5, 8 and 11 (Tanaka H et al., Br J Cancer 2001 Jan 5, 84(1): 94-9; Umano Y et al., Br J Cancer 2001 Apr. 20, 84(8): 1052-7; Uchida N et al., Clin Cancer Res 2004 Dec. 15, 10(24): 8577-86; Suda T et al., Cancer Sci 2006 May, 97(5): 411-9; Watanabe T et al., Cancer Sci 2005 August, 96(8): 498-506).
(§1) Peptide-pulsed TISI (1×10^4/well) was prepared as stimulator cells. Cultured cells in 48 wells were used as responder cells. IFN-gamma ELISPOT assay and IFN-gamma ELISA were performed under manufacture procedure.

[2] = tested on: peptide-pulsed TISI cells; experiment: IFN-gamma ELISA of CTL clones established by limiting dilution; type: cell-based, human; settings: CTL clones from limiting dilution, target cells pulsed with peptide vs not pulsed
Method: The dilutions were made to have 0.3, 1, and 3 CTLs/well in 96 round-bottomed micro titer plate (Nalge Nunc International). CTLs were cultured with 1×10^4 cells/well of 2 kinds of human B-lymphoblastoid cell lines, 30 ng/ml of anti-CD3 antibody, and 125 IU/ml of IL-2 in a total of 150 micro 1/well of AIM-V Medium containing 5% AS. 50 micro 1/well of IL-2 were added to the medium 10 days later so to reach a final concentration of 125 IU/ml IL-2. CTL activity was tested on the 14th day, and CTL clones were expanded using the same method as described above (Uchida N et al., Clin Cancer Res 2004 Dec. 15, 10(24): 8577-86; Suda T et al., Cancer Sci 2006 May, 97(5): 411-9; Watanabe T et al., Cancer Sci 2005 August, 96(8): 498-506).
as §1

[3] = tested on: COS7 cells transfected with SEMA5B and HLA-A*2402; experiment: Specific CTL activity against target cells expressing SEMA5B and HLA-A*2402; type: cell-based, African green monkey; settings: CTL line established with the peptide
Description: The cDNA encoding an open reading frame of target genes or HLA-A*2402 was amplified by PCR. The PCR-amplified product was cloned into expression vector. The plasmids were transfected into COS7, which is the target genes and HLA-A*2402-null cell line, using lipofectamine 2000 (Invitrogen) according to the manufacturer's recommended procedures. After 2 days from transfection, the transfected cells were harvested with versene (Invitrogen) and used as the stimulator cells (5×10^4 cells/well) for CTL activity assay.
The established CTL line raised against SEMA5B-A24-10-290 (SEQ ID NO: 41) peptide was examined for the ability to recognize target cells that express SEMA5B and HLA-A*2402 molecule. COS7 cells transfected with both the full SEMA5B and HLA-A*2402 gene (a specific model for the target cells that express SEMA5B and HLA-A*2402 gene) were prepared as a stimulator cells, and COS7 cells transfected with either full length of SEMA5B or HLA-A*2402 were used as the controls.

[4] = tested on: peptide-pulsed TISI cells; experiment: In vitro CTL induction with peptide-pulsed DCs, IFN-gamma ELISPOT assay; type: cell-based, human; settings: for Peptide specific CTL activity (IFN-gamma production), IFN-gamma ELISPOT: CTLs induced with the peptide, target cells pulsed with peptide vs not pulsed (control); for CTL inducibility: summary statement in the description
Description: Monocyte-derived dendritic cells (DCs) were used as antigen-presenting cells to induce cytotoxic T lymphocyte (CTL) responses against peptides presented on human leukocyte antigen (HLA). DCs were generated in vitro as described elsewhere (Nakahara S et al., Cancer Res 2003 Jul. 15, 63(14): 4112-8). Specifically, peripheral blood mononuclear cells isolated from a normal volunteer (HLA-A*2402 positive) by Ficoll-Paque plus (Pharmacia) solution were separated by adherence to a plastic tissue culture dish (Becton Dickinson) so as to enrich them as the monocyte fraction. The monocyte-enriched population was cultured in the presence of 1000 IU/ml of granulocyte-macrophage colony-stimulating factor (R&D System) and 1000 IU/ml of interleukin (IL)-4 (R&D System) in AIM-V Medium (Invitrogen) containing 2% heatinactivated autologous serum (AS). After 7 days of culture, the cytokine-induced DCs were pulsed with 20 micro g/ml of each of the synthesized peptides in the presence of 3 micro g/ml of beta 2-microglobulin for 3 hr at 37 degrees C. in AIM-V Medium. The generated cells appeared to express DC-associated molecules, such as CD80, CD83, CD86 and HLA class II, on their cell surfaces (data not shown). These peptide-pulsed DCs were then inactivated by X ray-irradiated (20 Gy) and mixed at a 1:20 ratio with autologous CD8+ T cells, obtained by positive selection with CD8 Positive Isolation Kit (Dynal). These cultures were set up in 48-well plates (Corning); each well contained 1.5×10^4 peptide-pulsed DCs, 3×10^5 CD8+ T cells and 10 ng/ml of IL-7 (R&D System) in 0.5 ml of AIM-V/2% AS medium. Three days later, these cultures were supplemented with IL-2 (CHIRON) to a final concentration of 20 IU/ml. On day 7 and 14, the T cells were further stimulated with the autologous peptide-pulsed DCs. The DCs were prepared each time by the same way described above. CTL was tested against peptide-pulsed TISI cells after the 3rd round of peptide stimulation on day 21 (Tanaka H et al., Br J Cancer 2001 Jan 5, 84(1): 94-9; Umano Y et al., Br J Cancer 2001 Apr. 20, 84(8): 1052-7; Uchida N et al., Clin Cancer Res 2004 Dec. 15, 10(24): 8577-86; Suda T et al., Cancer Sci 2006 May, 97(5): 411-9; Watanabe T et al., Cancer Sci 2005 August, 96(8): 498-506).
as §1

AYDIGLFAYF [SEQ ID NO: 41, AYDIGLFAYF]
IFN-gamma production of CTL lines, IFN-gamma ELISA [1]: potent IFN-gamma production
IFN-gamma production of CTL clones, IFN-gamma ELISA ([2]; listed as SEMA5B-A24-10-290): potent IFN-gamma production
Specific CTL activity against control COS7 cells expressing either HLA-A*2402 or SEMA5B ([3]; controls): no significant specific CTL activity
Specific CTL activity against COS7 cells transfected with both SEMA5B and HLA-A*2402 ([3]; listed as SEMA5B-A24-10-290): potent CTL activity; also recorded: specific CTL activity
Peptide specific CTL activity (IFN-gamma production), IFN-gamma ELISPOT ([4]; listed as SEMA5B-A24-10-290): potent IFN-gamma production; also recorded: significant and specific CTL activity
CTL inducibility [4]: particularly high CTL inducibility

AYRSQGACL [SEQ ID NO: 20, AYRSQGACL]
Peptide specific CTL activity (IFN-gamma production), IFN-gamma ELISPOT ([4]; listed as SEMA5B-A24-9-558): potent IFN-gamma production; also recorded: significant and specific CTL activity
CTL inducibility [4]: particularly high CTL inducibility

CFLGSGLLTL [SEQ ID NO: 47, CFLGSGLLTL]
Peptide specific CTL activity (IFN-gamma production), IFN-gamma ELISPOT ([4]; listed as SEMA5B-A24-10-1044): potent IFN-gamma production; also recorded: significant and specific CTL activity
CTL inducibility [4]: particularly high CTL inducibility

CYLEELHVL [SEQ ID NO: 2, CYLEELHVL]
IFN-gamma production of CTL lines, IFN-gamma ELISA [1]: potent IFN-gamma production
IFN-gamma production of CTL clones, IFN-gamma ELISA ([2]; listed as SEMA5B-A24-9-512): potent IFN-gamma production
Peptide specific CTL activity (IFN-gamma production), IFN-gamma ELISPOT ([4]; listed as SEMA5B-A24-9-512): potent IFN-gamma production; also recorded: significant and specific CTL activity
CTL inducibility [4]: particularly high CTL inducibility

FYYNELQSAF [SEQ ID NO: 40, FYYNELQSAF]
Peptide specific CTL activity (IFN-gamma production), IFN-gamma ELISPOT ([4]; listed as SEMA5B-A24-10-354): potent IFN-gamma production; also recorded: significant and specific CTL activity
CTL inducibility [4]: particularly high CTL inducibility

IFWASWGSW [SEQ ID NO: 8, IFWASWGSW]
Peptide specific CTL activity (IFN-gamma production), IFN-gamma ELISPOT ([4]; listed as SEMA5B-A24-9-723): potent IFN-gamma production; also recorded: significant and specific CTL activity
CTL inducibility [4]: particularly high CTL inducibility

IGLFAYFFL [SEQ ID NO: 10, IGLFAYFFL]
IFN-gamma production of CTL lines, IFN-gamma ELISA [1]: potent IFN-gamma production
Peptide specific CTL activity (IFN-gamma production), IFN-gamma ELISPOT ([4]; listed as SEMA5B-A24-9-293): potent IFN-gamma production; also recorded: significant and specific CTL activity
CTL inducibility [4]: particularly high CTL inducibility

KWLNEPNFV [SEQ ID NO: 9, KWLNEPNFV]
Peptide specific CTL activity (IFN-gamma production), IFN-gamma ELISPOT ([4]; listed as SEMA5B-A24-9-280): potent IFN-gamma production; also recorded: significant and specific CTL activity
CTL inducibility [4]: particularly high CTL inducibility

LYAATVIDF [SEQ ID NO: 1, LYAATVIDF]
Peptide specific CTL activity (IFN-gamma production), IFN-gamma ELISPOT [4]: no specific IFN-gamma production

LYIGTESGTI [SEQ ID NO: 54, LYIGTESGTI]
Peptide specific CTL activity (IFN-gamma production), IFN-gamma ELISPOT ([4]; listed as SEMA5B-A24-10-489): potent IFN-gamma production; also recorded: significant and specific CTL activity
CTL inducibility [4]: particularly high CTL inducibility

PYSEIPVIL [SEQ ID NO: 3, PYSEIPVIL]
IFN-gamma production of CTL lines, IFN-gamma ELISA [1]: potent IFN-gamma production
IFN-gamma production of CTL clones, IFN-gamma ELISA ([2]; listed as SEMA5B-A24-9-1010): potent IFN-gamma production
Peptide specific CTL activity (IFN-gamma production), IFN-gamma ELISPOT ([4]; listed as SEMA5B-A24-9-1010): potent IFN-gamma production; also recorded: significant and specific CTL activity
CTL inducibility [4]: particularly high CTL inducibility

RFSHLVVDL [SEQ ID NO: 13, RFSHLVVDL]
Peptide specific CTL activity (IFN-gamma production), IFN-gamma ELISPOT ([4]; listed as SEMA5B-A24-9-470): potent IFN-gamma production; also recorded: significant and specific CTL activity
CTL inducibility [4]: particularly high CTL inducibility

VFMCGTNAF [SEQ ID NO: 4, VFMCGTNAF]
Peptide specific CTL activity (IFN-gamma production), IFN-gamma ELISPOT ([4]; listed as SEMA5B-A24-9-196): potent IFN-gamma production; also recorded: significant and specific CTL activity
CTL inducibility [4]: particularly high CTL inducibility
